In patent US5358947A, “Angiotensin II receptor blocking 2,3-substituted pyrazolo[1,5-a]-1,3,5-triazin-4(3H)-ones” (American Cyanamid Company, priority 1993, dated 1994):
Values joined by “and” are separate entries in the source; they are usually repeats but may differ in a detail not shown here. Equal values may be shown once.

System: ANGIOTENSIN II (AII) VASOPRESSOR RESPONSE
Test: AII Challenge: angiotensin II (AII) vasopressor response in conscious rats
Assay type: in vivo
Set-up: Response After AII / Change / Average Change: unit not given here
Conditions: for Control Before AII / Change / Response After AII: individual rat; for Control Before AII: in mmHg (unit assumed); for % Inhibition / Average Change: n = 2
Method in brief: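 Conscious male Okamoto-Aoki SHR (16-20 weeks, ~330 g), aorta/vena cava cannulated, challenged with AII 0.05 and 0.1 ug/kg i.v. before and at 30-300 min after compound dosed i.v., i.p. or orally. Systolic pressure rise expressed relative to each rat's predose response (100%).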

[1] = 3 mg/kg i.v., AII 0.05 mcg/kg, 30 min post dose
[2] = 3 mg/kg i.v., AII 0.05 mcg/kg, 30 min post dose, listed as Ex. 17
[3] = 3 mg/kg i.v., AII 0.1 mcg/kg, 30 min post dose
[4] = 3 mg/kg i.v., AII 0.1 mcg/kg, 30 min post dose, listed as Ex. 17
[5] = 10 mg/kg i.v., AII 0.05 mcg/kg, 60 min post dose, listed as Ex. 17
[6] = 10 mg/kg i.v., AII 0.05 mcg/kg, 90 min post dose, listed as Ex. 17
[7] = 10 mg/kg i.v., AII 0.05 mcg/kg, 120 min post dose, listed as Ex. 17
[8] = 10 mg/kg i.v., AII 0.05 mcg/kg, 180 min post dose, listed as Ex. 17
[9] = 10 mg/kg i.v., AII 0.05 mcg/kg, 240 min post dose, listed as Ex. 17
[10] = 10 mg/kg i.v., AII 0.05 mcg/kg, 300 min post dose, listed as Ex. 17
[11] = 10 mg/kg i.v., AII 0.1 mcg/kg, 60 min post dose, listed as Ex. 17
[12] = 10 mg/kg i.v., AII 0.1 mcg/kg, 90 min post dose, listed as Ex. 17
[13] = 10 mg/kg i.v., AII 0.1 mcg/kg, 120 min post dose, listed as Ex. 17
[14] = 10 mg/kg i.v., AII 0.1 mcg/kg, 180 min post dose, listed as Ex. 17
[15] = 10 mg/kg i.v., AII 0.1 mcg/kg, 240 min post dose, listed as Ex. 17
[16] = 10 mg/kg i.v., AII 0.1 mcg/kg, 300 min post dose, listed as Ex. 17

CCCCc1nc2ccnn2c(=O)n1Cc1ccc(-c2ccccc2-c2nn[nH]n2)cc1 [Example 17, 2-Butyl-3-[[2'-(1H-tetrazol-5-yl)[1,1'-biphenyl]-4-yl]methyl]pyrazolo[1,5-a]-1,3,5-triazin-4(3H) -one]
Control Before AII [1]: 252 | Change [2]: 33 and 30 | Response After AII [2]: 285 and 265 | Control Before AII [2]: 235 | % Inhibition [1]: 34% | Average Change [1]: 31.5 | Control Before AII [3]: 255 | Change [4]: 25 and 35 | Response After AII [4]: 280 and 260 | Control Before AII [4]: 225 | % Inhibition [3]: 37% | Average Change [3]: 30 | Change [5]: 5 and 10 | Response After AII [5]: 255 and 245 | Control Before AII [5]: 250 and 235 | % Inhibition [5]: 84% | Average Change [5]: 7.5 | Change [6]: 25 | Response After AII [6]: 275 and 255 | Control Before AII [6]: 250 and 230 | % Inhibition [6]: 47% | Average Change [6]: 25 | Change [7]: 25 and 30 | Response After AII [7]: 270 and 255 | Control Before AII [7]: 245 and 225 | % Inhibition [7]: 42% | Average Change [7]: 27.5 | Change [8]: 20 and 30 | Response After AII [8]: 260 and 240 | Control Before AII [8]: 240 and 210 | % Inhibition [8]: 47% | Average Change [8]: 25 | Change [9]: 25 and 15 | Response After AII [9]: 270 and 250 | Control Before AII [9]: 245 and 235 | % Inhibition [9]: 58% | Average Change [9]: 20 | Change [10]: 40 and 30 | Response After AII [10]: 290 and 245 | Control Before AII [10]: 250 and 215 | % Inhibition [10]: 26% | Average Change [10]: 35 | Control Before AII (10 mg/kg i.v., AII 0.1 mcg/kg, 60 min post dose): 255 | Change [11]: 5 and 10 | Response After AII [11]: 260 and 235 | Control Before AII [11]: 225 | % Inhibition [11]: 84% | Average Change [11]: 7.5 | Change [12]: 15 and 35 | Response After AII [12]: 265 and 260 | Control Before AII [12]: 250 and 225 | % Inhibition [12]: 47% | Average Change [12]: 25 | Change [13]: 25 and 30 | Response After AII [13]: 275 and 260 | Control Before AII [13]: 250 and 230 | % Inhibition [13]: 42% | Average Change [13]: 27.5 | Control Before AII (10 mg/kg i.v., AII 0.1 mcg/kg, 180 min post dose): 240 | Change [14]: 30 and 40 | Response After AII [14]: 270 and 265 | Control Before AII [14]: 225 | % Inhibition [14]: 26% | Average Change [14]: 35 | Change [15]: 35 and 30 | Response After AII [15]: 290 and 270 | Control Before AII [15]: 255 and 240 | % Inhibition [15]: 32% | Average Change [15]: 32.5 | Change [16]: 35 and 25 | Response After AII [16]: 285 and 260 | Control Before AII [16]: 250 and 235 | % Inhibition [16]: 37% | Average Change [16]: 30
